Measured values reported in patent publication US20220362249A1, “METHODS FOR TREATING […]” (PTC Therapeutics MP, Inc., priority 2019, published 2022).
Where two headings read alike, the source gives them in different places.

How the values were obtained:
[1] = Food effect on administration of sepiapterin: plasma sepiapterin and BH4 concentrations, fasted vs fed; format: in vivo, human; settings: sepiapterin 10 mg/kg oral; for concentration at 0 h / concentration at 0.5 h / concentration at 1 h / concentration at 2 h / concentration at 4 h / concentration at 8 h / concentration at 12 h / concentration at 24 h: human, oral, 10 mg/kg; for concentration at 0 h: 0 h (predose)
Procedure: Method: Subjects received 2 oral doses of sepiapterin (10 mg/kg) separated by 1 week in a fasted and fed state. Subjects were fed a standard high-fat (approximately 50 percent of total caloric content of the meal) and high-calorie (approximately 800 to 1000 calories) meal starting 30 minutes prior to receiving their second oral dose of sepiapterin on Day 8.
Sampling for PK analysis occurred predose on Days 1 and 8 (within 30 minutes before dosing) and 0.5 hr, 1 hr, 2 hr, 4 hr, 8 hr, 12 hr, and 24 hr after the doses on Days 1 and 8. The blood concentrations of sepiapterin and BH4 were analyzed by MNG Labs.

[2] = Pharmacokinetic analysis of multiple doses of sepiapterin (once daily for 7 days, fed subjects); format: in vivo, human; settings: human, plasma, fed; for AUC(0-t): read-out: AUC0-24; for Cmax: read-out: Cmax
Description: Methods: Three cohorts of eight fed subjects each were randomized to receive once-daily sepiapterin or placebo for 7 days in a 6:2 ratio. A sentinel dose strategy was also used for administration of the highest sepiapterin dose.

[3] = plasma, fasted, read-out: Concentration in Plasma, Maximum
[4] = plasma, fasted, read-out: Concentration in Plasma, Mean
[5] = plasma, fasted, read-out: Concentration in Plasma, Median
[6] = plasma, fasted, read-out: Concentration in Plasma, Minimum
[7] = plasma, fed (high-fat meal), read-out: Concentration in Plasma, Maximum
[8] = plasma, fed (high-fat meal), read-out: Concentration in Plasma, Mean
[9] = plasma, fed (high-fat meal), read-out: Concentration in Plasma, Median
[10] = plasma, fed (high-fat meal), read-out: Concentration in Plasma, Minimum
[11] = 5 mg/kg, Day 1, sepiapterin 5 mg/kg once daily
[12] = 5 mg/kg, Day 7, sepiapterin 5 mg/kg once daily
[13] = 20 mg/kg, Day 1, sepiapterin 20 mg/kg once daily
[14] = 20 mg/kg, Day 7, sepiapterin 20 mg/kg once daily
[15] = 60 mg/kg, Day 1, sepiapterin 60 mg/kg once daily
[16] = 60 mg/kg, Day 7, sepiapterin 60 mg/kg once daily

C[C@H](O)[C@H](O)[C@H]1CNc2nc(N)[nH]c(=O)c2N1 [BH4, Tetrahydrobiopterin]
concentration at 0 h [1, 3]: 9 nM | concentration at 0 h [1, 4]: 7.62 nM | concentration at 0 h [1, 5]: 7.75 nM | concentration at 0 h [1, 6]: 5 nM | concentration at 0.5 h [1, 3]: 66.5 nM | concentration at 0.5 h [1, 4]: 25.6 nM | concentration at 0.5 h [1, 5]: 22.9 nM | concentration at 0.5 h [1, 6]: 13.8 nM | concentration at 1 h [1, 3]: 223 nM | concentration at 1 h [1, 4]: 155 nM | concentration at 1 h [1, 5]: 147 nM | concentration at 1 h [1, 6]: 98.5 nM | concentration at 2 h [1, 3]: 618 nM | concentration at 2 h [1, 4]: 413 nM | concentration at 2 h [1, 5]: 370 nM | concentration at 2 h [1, 6]: 271 nM | concentration at 4 h [1, 3]: 1130 nM | concentration at 4 h [1, 4]: 624 nM | concentration at 4 h [1, 5]: 635 nM | concentration at 4 h [1, 6]: 379 nM | concentration at 8 h [1, 3]: 457 nM | concentration at 8 h [1, 4]: 248 nM | concentration at 8 h [1, 5]: 233 nM | concentration at 8 h [1, 6]: 90.2 nM | concentration at 12 h [1, 3]: 162 nM | concentration at 12 h [1, 4]: 85.9 nM | concentration at 12 h [1, 5]: 75.3 nM | concentration at 12 h [1, 6]: 38.9 nM | concentration at 24 h [1, 3]: 37.4 nM | concentration at 24 h [1, 4]: 18.3 nM | concentration at 24 h [1, 5]: 15.3 nM | concentration at 24 h [1, 6]: 8.5 nM | concentration at 0 h [1, 7]: 11 nM | concentration at 0 h [1, 8]: 8.43 nM | concentration at 0 h [1, 9]: 8.5 nM | concentration at 0 h [1, 10]: 6 nM | concentration at 0.5 h [1, 7]: 76.4 nM | concentration at 0.5 h [1, 8]: 33.3 nM | concentration at 0.5 h [1, 9]: 30.9 nM | concentration at 0.5 h [1, 10]: 8.9 nM | concentration at 1 h [1, 7]: 369 nM | concentration at 1 h [1, 8]: 166 nM | concentration at 1 h [1, 9]: 160 nM | concentration at 1 h [1, 10]: 42.3 nM | concentration at 2 h [1, 7]: 1200 nM | concentration at 2 h [1, 8]: 587 nM | concentration at 2 h [1, 9]: 554 nM | concentration at 2 h [1, 10]: 299 nM | concentration at 4 h [1, 7]: 1570 nM | concentration at 4 h [1, 8]: 1100 nM | concentration at 4 h [1, 9]: 1010 nM | concentration at 4 h [1, 10]: 751 nM | concentration at 8 h [1, 7]: 926 nM | concentration at 8 h [1, 8]: 520 nM | concentration at 8 h [1, 9]: 485 nM | concentration at 8 h [1, 10]: 253 nM | concentration at 12 h [1, 7]: 261 nM | concentration at 12 h [1, 8]: 161 nM | concentration at 12 h [1, 9]: 142 nM | concentration at 12 h [1, 10]: 90.4 nM | concentration at 24 h [1, 7]: 40.1 nM | concentration at 24 h [1, 8]: 19.3 nM | concentration at 24 h [1, 9]: 16.1 nM | concentration at 24 h [1, 10]: 12.1 nM | Geometric mean ratio (fasted/fed, 90% CI) for AUC0-inf ([1]; plasma): 0.58 (0.47 to 0.71) | Geometric mean ratio (fasted/fed, 90% CI) for Cmax ([1]; plasma): 0.55 (0.45 to 0.68) | Cmax in the plasma, fed compared to fasted subjects (in words) [1]: much higher | Increase in overall exposure (AUC0-inf and AUClast), fed compared with fasted state [1]: 1.7 fold | Tmax [2, 11]: 4 h | AUC(0-t) [2, 11]: 994 ng·h/mL | Cmax [2, 11]: 147 ng/mL | Tmax [2, 12]: 4 h | AUC(0-t) [2, 12]: 1070 ng·h/mL | Cmax [2, 12]: 152 ng/mL | Tmax [2, 13]: 4 h | AUC(0-t) [2, 13]: 3030 ng·h/mL | Cmax [2, 13]: 496 ng/mL | Tmax [2, 14]: 4 h | AUC(0-t) [2, 14]: 3720 ng·h/mL | Cmax [2, 14]: 516 ng/mL | Tmax [2, 15]: 4.6 h | AUC(0-t) [2, 15]: 4560 ng·h/mL | Cmax [2, 15]: 597 ng/mL | Tmax [2, 16]: 4 h | AUC(0-t) [2, 16]: 4860 ng·h/mL | Cmax [2, 16]: 678 ng/mL | AUC(0-inf) ([2]; Day 1, sepiapterin 5 mg/kg once daily): 1010 ng·h/mL | AUC(0-inf) ([2]; Day 1, sepiapterin 20 mg/kg once daily): 3080 ng·h/mL | AUC(0-inf) ([2]; Day 1, sepiapterin 60 mg/kg once daily): 4670 ng·h/mL
